Measurements reported in patent US9051342B2 (priority 2004, dated 2015).
Where a name gives a salt, the structure may show the parent alone.

melting point | SMILES
295 to 297 °C | O=C(O)c1cccc(-c2ncn(-c3ccc(N4CCC4=O)cc3)n2)c1 [Compound 44, 3-{1-[4-(2-Oxo-azetidin-1-yl)-phenyl]-1H-[1,2,4]triazol-3-yl}-benzoic acid]
243 to 245 °C | O=C(O)c1cccc(-n2cc(-c3ccccn3)cn2)c1 [Compound 113, 3-(4-Pyridin-2-yl-pyrazol-1-yl)-benzoic acid]
263 to 265 °C | O=C(O)c1ccc(-n2cnc(-c3ccccc3)c2)cc1 [Compound 263, 4-(4-Phenyl-imidazol-1-yl)-benzoic acid]
286 to 289 °C | O=C(O)c1ccc(-c2cnn(-c3ccc(Cl)c(Cl)c3)c2)cc1 [Compound 233, 4-[1-(3,4-Dichloro-phenyl)-1H-pyrazol-4-yl]-benzoic acid]
259 to 261 °C | O=C(O)c1cccc(-n2cnc(-c3ccc(OCc4ccccc4)cc3)n2)c1 [Compound 10, 3-[3-(4-Benzyloxy-phenyl)-[1,2,4]triazol-1-yl]-benzoic acid]
250 to 252 °C | O=C(O)c1cccc(-n2cc(-c3ccc4ccccc4n3)cn2)c1 [Compound 123, 3-(4-Quinolin-2-yl-pyrazol-1-yl)-benzoic add]
279 to 280 °C | COc1ccc2c(c1)CCc1cn(-c3ccc(C(=O)O)cc3)nc1-2 [Compound 163, 4-(7-Methoxy-4,5-dihydro-benzo[g]indazol-2-yl)-benzoic acid]
263 to 265 °C | Cc1ccc(-n2cnc(-c3cccc(C(=O)O)c3)n2)cc1 [Compound 14, 3-(1-p-Tolyl-1H-[1,2,4]triazol-3-yl)-benzoic acid]
240 to 243 °C | CC(C)c1ccc(-n2ccc(-c3ccc(C(=O)O)cc3)c2)cc1 [Compound 106, 4-[1-(4-Isopropyl-phenyl)-1H-pyrrol-3-yl]-benzoic acid]
152 to 153 °C | O=C(O)c1cccc(-c2ccn(-c3cccc(OCc4ccccc4)c3)n2)c1 [Compound 175, 3-[1-(3-Benzyloxy-phenyl)-1H-pyrazol-3-yl]-benzoic acid]
> 310 °C | O=C(O)c1cccc(-c2nn(-c3cccc(F)c3)c(=O)[nH]2)c1 [Compound 42, 3-[1-(3-Fluoro-phenyl)-5-oxo-4,5-dihydro-1H-[1,2,4]triazol-3-yl]-benzoic acid]
307 to 311 °C | O=C(O)c1cccc(-n2cnc(-c3ccc(O)cc3)n2)c1 [Compound 9, 3-[3-(4-Hydroxy-phenyl)-[1,2,4]triazol-1-yl]-benzoic acid]
> 350 °C | O=C(O)c1ccc(-c2ccn(-c3ccc(Cl)cc3)c2)cc1 [Compound 196, 4-[1-(4-Chloro-phenyl)-1H-pyrrol-3-yl]-benzoic acid]
321 to 323 °C | O=C(O)c1ccc(-n2cc(-c3ccc(F)cc3)nn2)cc1 [Compound 266, 4-[4-(4-Fluoro-phenyl)-[1,2,3]triazol-1-yl]-benzoic acid]
327 to 328 °C | O=C(O)c1ccc(-n2cc(-c3ccc(Br)cc3F)nn2)cc1 [Compound 267, 4-[4-(4-Bromo-2-fluoro-phenyl)-[1,2,3]triazol-1-yl]-benzoic acid]
300 to 302 °C | O=C(O)c1ccc(-n2cc(-c3ccc(Cl)cc3)cn2)cc1 [Compound 52, 4-[4-(4-Chloro-phenyl)-pyrazol-1-yl]-benzoic acid]
217 to 218 °C | COc1ccc2c(c1)CCc1cn(-c3cccc(C(=O)O)c3)nc1-2 [Compound 142, 3-(7-Methoxy-4,5-dihydro-benzo[g]indazol-2-yl)-benzoic acid]
192 to 193 °C | COc1ccc2c(c1)-c1nn(-c3cccc(C(=O)O)c3)cc1CC2 [Compound 143, 3-(8-Methoxy-4,5-dihydro-benzo[g]indazol-2-yl)-benzoic acid]
173 to 175 °C | CC(C)c1ccc(-n2cnc(-c3cccc(C(=O)O)c3)n2)cc1 [Compound 15, 3-[1-(4-Isopropyl-phenyl)-1H-[1,2,4]triazol-3-yl]-benzoic acid]
161 to 163 °C | Cc1ccccc1-n1ccc(-c2cccc(C(=O)O)c2)c1 [Compound 240, 3-(1-o-Tolyl-1H-pyrrol-3-yl)-benzoic acid]
205 to 208 °C | Cc1ccc(-n2ccc(-c3cccc(C(=O)O)c3)c2)cc1F [Compound 241, 3-[1-(3-Fluoro-4-methyl-phenyl)-1H-pyrrol-3-yl]-benzoic acid]
224 to 226 °C | O=C(O)c1cccc(-c2ccn(-c3ccc(C(F)(F)F)cc3)c2)c1 (as salt: sodium) [Compound 154, 3-[1-(4-Trifluoromethyl-phenyl)-]-1H-pyrrol-3-yl]-benzoic acid sodium salt]
277 to 279 °C | O=C(O)c1cccc(-n2cnc(-c3ccccc3)c2)c1 [Compound 262, 3-(4-Phenyl-imidazol-1-yl)-benzoic acid]
308 to 310 °C | O=C(O)c1ccc(-n2cc3c(n2)-c2ccccc2OC3)cc1 [Compound 162]
215 to 216 °C | CC(C)c1ccc(-c2ccn(-c3cccc(C(=O)O)c3)n2)cc1 [Compound 5, 3-[3-(4-Isopropyl-phenyl)-pyrazol-1-yl]-benzoic acid]

melting point | SMILES
312 to 313 °C | O=C(O)c1ccc(-n2cc(-c3ccc(F)cc3F)nn2)cc1 [Compound 268, 4-[4-(2,4-Difluoro-phenyl)-[1,2,3]triazol-1-yl]-benzoic acid]
276 to 277 °C | COc1cccc(-c2cn(-c3ccc(C(=O)O)cc3)nn2)c1 [Compound 204, 4-[4-(3-Methoxyphenyl)-[1,2,3]triazol-1-yl]benzoic acid]
273 to 275 °C | O=C(O)c1cccc(-n2ncc3c2CCc2ccccc2-3)c1 [Compound 135, 3-(4,5-Dihydro-benzo[e]indazol-3-yl)-benzoic acid]
263 to 265 °C | O=C(O)c1cccc(-c2ncn(-c3ccc(-c4ccccc4)cc3)n2)c1 [Compound 24, 3-(1-Biphenyl-4-yl-1H-[1,2,4]triazol-3-yl)-benzoic acid]
258 to 260 °C | O=C(O)c1ccc(-c2cnn(-c3ccc(F)cc3F)c2)cc1 [Compound 180, 4-[1-(2,4-Difluoro-phenyl)-1H-pyrazol-4-yl]-benzoic acid]
244 to 245 °C | O=C(O)c1ccc(-n2ccc(-c3ccccc3)n2)cc1 [Compound 222, 4-(3-Phenyl-pyrazol-1-yl)-benzoic acid]
209 to 211 °C | Cc1ccccc1-n1cnc(-c2cccc(C(=O)O)c2)n1 [Compound 40, 3-(1-o-Tolyl-1H-[1,2,4]triazol-3-yl)-benzoic acid]
142 to 145 °C | N#Cc1cccc(-c2ccn(-c3ccc(F)c(F)c3)n2)c1 [Compound 63, 3-[1-(3,4-Difluoro-phenyl)-1H-pyrazol-3-yl]-benzonitrile]
211 to 212 °C | COc1cccc(-n2cc(-c3ccc(C(=O)O)cc3)cn2)c1 [Compound 171, 4-[1-(3-Methoxy-phenyl)-1H-pyrazol-4-yl]-benzoic acid]
200 to 202 °C | O=C(O)c1cccc(-c2cnn(-c3ccc(F)cc3F)c2)c1 [Compound 179, 3-[1-(2,4-Difluoro-phenyl)-1H-pyrazol-4-yl]-benzoic acid]
279 to 282 °C (dec.) | CC(C)c1ccc(-c2cn(-c3cccc(C(=O)O)c3)c(N)n2)cc1 [Compound 1, 3-[2-amino-4-(4-isopropylphenyl)-1H-imidazol-1-yl]benzoic acid]
283 to 285 °C | O=C(O)c1cccc(-n2cc(-c3ccc(F)cc3F)cn2)c1 [Compound 103, 3-[4-(2,4-Difluoro-phenyl)-pyrazol-1-yl]-benzoic acid]
284 to 286 °C | O=C(O)c1cccc(-c2ncn(-c3ccc([N+](=O)[O-])cc3)n2)c1 [Compound 23, 3-[1-(4-Nitro-phenyl)-1H-[1,2,4]triazol-3-yl]-benzoic acid]
143 to 145 °C | O=C(O)c1cccc(-c2cnn(-c3cccc(OC(F)(F)F)c3)c2)c1 [Compound 223, 3-[1-(3-Trifluoromethoxy-phenyl)-1H-pyrazol-4-yl]-benzoic acid]
180 to 183 °C | CN(C)c1cccc(-n2ccc(-c3cccc(C(=O)O)c3)n2)c1 [Compound 164, 3-[1-(3-Dimethylamino-phenyl)-1H-pyrazol-3-yl]-benzoic acid]
180 to 183 °C | O=C(O)c1cccc(-c2ccn(-c3cccc(Br)c3)n2)c1 [Compound 165, 3-[1-(3-Bromo-phenyl)-1H-pyrazol-3-yl]-benzoic acid]
237 to 240 °C | O=C(O)c1cccc(-n2ccc(-c3ccc(F)cc3)n2)c1 [Compound 92, 3-[3-(4-Fluoro-phenyl)-pyrazol-1-yl]-benzoic acid]
288 to 290 °C | COc1cccc2c1CCc1cn(-c3ccc(C(=O)O)cc3)nc1-2 [Compound 148, 4-(6-Methoxy-4,5-dihydro-benzo[g]indazol-2-yl)-benzoic acid]
252 to 253 °C | COc1ccc(-n2ccc(-c3ccc(C(=O)O)cc3)n2)cc1 [Compound 217, 4-[1-(4-Methoxy-phenyl)-1H-pyrazol-3-yl]-benzoic acid]
311 to 313 °C | COc1cccc2c1Cc1cn(-c3ccc(C(=O)O)cc3)nc1-2 [Compound 187, 4-(5-Methoxy-4H-indeno[1,2-c]pyrazol-2-yl)-benzoic acid]
266 to 268 °C | O=C(O)c1ccc(-c2cnn(-c3ccc4c(c3)OCO4)c2)cc1 [Compound 227, 4-(1-Benzo[1,3]dioxol-5-yl-1H-pyrazol-4-yl)-benzoic acid]
212 to 215 °C | CC(C)c1ccc(-n2cc(-c3cccc(C(=O)O)c3)cn2)cc1 [Compound 228, 3-[1-(4-Isopropyl-phenyl)-1H-pyrazol-4-yl]-benzoic acid]
282 to 283 °C | O=C(O)c1ccc(-n2cc3c(n2)-c2cccc(OC(F)F)c2CC3)cc1 [Compound 186, 4-(6-Difluoromethoxy-4,5-dihydro-benzo[g]indazol-2-yl)-benzoic acid]
240 to 241 °C | O=C(O)c1cccc(-n2cc3c(n2)-c2cccc(OC(F)F)c2C3)c1 [Compound 185, 3-(5-Difluoromethoxy-4H-indeno[1,2-c]pyrazol-2-yl)-benzoic acid]
